Where two headings read alike, the source gives them in different places.

Our source for the IC50 values is US12428389B2, “Diarylamide compound and application thereof” (Sunshine Lake Pharma Co., Ltd., priority 2019, dated 2025).

One test concerns the target T1, human UT-B (Homo sapiens, UniProt Q13336).
T1 construct: endogenous in cells; host or cells: human erythrocytes
T1 sequence (Q13336 1-389): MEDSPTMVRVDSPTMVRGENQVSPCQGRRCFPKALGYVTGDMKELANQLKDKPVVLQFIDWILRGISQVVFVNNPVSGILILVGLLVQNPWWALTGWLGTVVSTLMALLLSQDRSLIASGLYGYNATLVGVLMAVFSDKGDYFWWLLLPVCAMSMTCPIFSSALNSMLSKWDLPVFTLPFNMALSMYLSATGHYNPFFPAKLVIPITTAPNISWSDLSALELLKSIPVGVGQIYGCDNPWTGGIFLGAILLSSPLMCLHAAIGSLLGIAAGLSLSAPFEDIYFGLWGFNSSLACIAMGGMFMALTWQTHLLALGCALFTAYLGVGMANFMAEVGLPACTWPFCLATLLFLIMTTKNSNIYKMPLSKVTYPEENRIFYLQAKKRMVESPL
The test is described as follows: erythrocyte lysis model, human erythrocytes. It is filed as cell-based. As for the experimental part: (§1) Erythrocyte lysis rate was calculated:
(§2) The formula for calculating the lysis rate percentage of erythrocytes, wherein Atest was the absorbance value of the test well, Aneg was the absorbance value of the negative control well, and Apos was the absorbance value of the positive control well. Erythrocyte lysis rate was calculated by measuring absorption at a wavelength of 710 nm.
(§3) The erythrocytes of three species of human, rats (SD rats) and mice (C57 mice) were taken, and urea transporter inhibitors were preliminarily screened from the above screening compound library by using the erythrocyte urea transporter inhibitor screening model.

Test [1] concerns the target T2, UT-B (Rattus norvegicus, UniProt P97689).
T2 construct: endogenous in cells; host or cells: erythrocytes of SD rats
T2 sequence (P97689 1-384): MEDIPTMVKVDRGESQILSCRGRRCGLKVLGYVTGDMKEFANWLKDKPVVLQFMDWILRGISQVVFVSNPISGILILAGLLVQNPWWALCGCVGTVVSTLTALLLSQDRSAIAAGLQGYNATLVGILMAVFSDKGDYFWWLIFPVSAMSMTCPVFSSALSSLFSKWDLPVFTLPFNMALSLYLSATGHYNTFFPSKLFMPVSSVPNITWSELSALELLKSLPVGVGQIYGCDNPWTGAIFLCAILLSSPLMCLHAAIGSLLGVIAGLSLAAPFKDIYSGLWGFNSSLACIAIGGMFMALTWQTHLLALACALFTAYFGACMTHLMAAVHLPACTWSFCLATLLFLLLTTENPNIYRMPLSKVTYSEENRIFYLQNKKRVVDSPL
Kind of test: erythrocyte lysis model, rat erythrocytes. It is filed as cell-based, rats. The following applies: concentration when the erythrocyte lysis rate of rats was 50%; read-out: IC50 rats. As for the experimental part:
as §1, §2, §3

Test [2] concerns the target T3, UT-B (Mus musculus, UniProt Q8VHL0).
T3 construct: endogenous in cells; host or cells: erythrocytes of C57 mice
T3 sequence (Q8VHL0 1-384): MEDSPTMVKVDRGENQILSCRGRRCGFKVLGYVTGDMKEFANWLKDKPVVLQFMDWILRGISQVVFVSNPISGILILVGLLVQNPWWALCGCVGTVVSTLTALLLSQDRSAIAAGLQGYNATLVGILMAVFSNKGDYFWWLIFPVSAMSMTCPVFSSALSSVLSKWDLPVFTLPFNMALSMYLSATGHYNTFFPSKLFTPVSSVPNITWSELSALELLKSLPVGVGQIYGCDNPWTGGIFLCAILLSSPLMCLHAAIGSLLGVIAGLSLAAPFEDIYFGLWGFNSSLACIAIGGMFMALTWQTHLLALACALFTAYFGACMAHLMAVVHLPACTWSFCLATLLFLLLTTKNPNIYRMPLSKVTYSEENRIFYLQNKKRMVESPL
Kind of test: erythrocyte lysis model, mouse erythrocytes. It is filed as cell-based. The following applies: concentration when the erythrocyte lysis rate of mice was 50%. As for the experimental part:
as §1, §2, §3

Setting [3] is: class of the IC50 to human UT-B, read-out: Activity level.
The mark [4] stands for this setting: concentration when the erythrocyte lysis rate of human was 50%, read-out: IC50 human.

Consider `CC(C)NC(=O)c1cccc(NC(=O)c2ccc([N+](=O)[O-])o2)c1` [Example 56, N-(3-(isopropylcarbamoyl)phenyl)-5-nitrofuran-2-carboxamide], for which the IC50 was below 10000 nM on human UT-B (setting [3]), 3940 nM at human UT-B (setting [4]), 1760 nM at UT-B [1] and 9700 nM against UT-B [2].
The like results for `CC(C)CNC(=O)c1cccc(NC(=O)c2ccc([N+](=O)[O-])o2)c1` [Example 57, N-(3-(isobutylcarbamoyl)phenyl)-5-nitrofuran-2-carboxamide] were, in that order, below 10000 nM, 1420 nM, 90 nM and 500 nM.
The like results for `O=C(NC1CCCCC1)c1cccc(NC(=O)c2ccc([N+](=O)[O-])o2)c1` [Example 58, N-(3-(cyclohexylcarbamoyl)phenyl)-5-nitrofuran-2-carboxamide] were, in that order, below 10000 nM, 1770 nM, 900 nM and 2630 nM.
For `O=C(NCc1ccccc1)c1cccc(NC(=O)c2ccc([N+](=O)[O-])o2)c1` [Example 59, N-(3-(benzylcarbamoyl)phenyl)-5-nitrofuran-2-carboxamide], the IC50 at human UT-B (setting [3]) was below 10000 nM; at human UT-B (setting [4]) it was 490 nM; on UT-B [1], 260 nM; at UT-B [2], 1020 nM.
Take `CN(C)CCNC(=O)c1cccc(NC(=O)c2ccc([N+](=O)[O-])o2)c1` [Example 60, N-(3-((2-dimethylaminoethyl)carbamoyl)phenyl)-5-nitrofuran-2-carboxamide]: the IC50 is below 10000 nM on human UT-B (setting [3]), 3680 nM at human UT-B (setting [4]), 210 nM on UT-B [1] and 740 nM on UT-B [2].
The like results for `O=C(NCCN1CCOCC1)c1cccc(NC(=O)c2ccc([N+](=O)[O-])o2)c1` [Example 61, N-(3-((2-morpholinylethyl)carbamoyl)phenyl)-5-nitrofuran-2-carboxamide] were, in that order, below 10000 nM, 540 nM, 1090 nM and 2610 nM.
For `O=C(NCCCN1CCOCC1)c1cccc(NC(=O)c2ccc([N+](=O)[O-])o2)c1` [Example 62, N-(3-((3-morpholinylpropyl)carbamoyl)phenyl)-5-nitrofuran-2-carboxamide], the IC50 on human UT-B (setting [3]) was below 10000 nM; on human UT-B (setting [4]) it was 3310 nM; at UT-B [1] it was 1410 nM; on UT-B [2], 4320 nM.
The like results for `CNC(=O)c1cc(NC(=O)c2ccc([N+](=O)[O-])o2)ccc1C` [Example 63, N-(4-methyl-3-methylcarbamoylphenyl)-5-nitrofuran-2-carboxamide] were, in that order, below 10000 nM, 1700 nM, 1760 nM and 1230 nM.
As for `CNC(=O)c1cc(C)cc(NC(=O)c2ccc([N+](=O)[O-])o2)c1` [Example 64, N-(5-methyl-3-methylcarbamoylphenyl)-5-nitrofuran-2-carboxamide], the IC50 at human UT-B (setting [3]) was below 10000 nM; at human UT-B (setting [4]), 1080 nM; at UT-B [1], 320 nM; against UT-B [2] it was 2790 nM.
The like results for `CNC(=O)c1cc(F)cc(NC(=O)c2ccc([N+](=O)[O-])o2)c1` [Example 66, N-(5-fluoro-3-methylcarbomoylphenyl)-5-nitrofuran-2-carboxamide] were, in that order, below 10000 nM, 3290 nM, 870 nM and 2220 nM.
Taken in the same sequence, the figures for `CNC(=O)c1cc(NC(=O)c2ccc([N+](=O)[O-])o2)ccc1O` [Example 67, N-(4-hydroxy-3-methylcarbomoylphenyl)-5-nitrofuran-2-carboxamide] were below 10000 nM, 2610 nM, 1130 nM and 2660 nM.
Regarding `CNC(=O)c1cc(NC(=O)c2ccc([N+](=O)[O-])o2)cc(C(=O)NC)c1` [Example 68, N^1,N^3-dimethyl-5-(5-nitrofuran-2-carboxamide) isophthalamide], the IC50 on human UT-B (setting [3]) is 20000 to 80000 nM; at human UT-B (setting [4]) it was 22800 nM; on UT-B [1], 34300 nM; at UT-B [2] it was 5690 nM.
As for `CN1C(=O)c2ccc(NC(=O)c3ccc([N+](=O)[O-])o3)cc2C1=O` [Example 69, N-(2-methyl-1,3-dihydro-1,3-dioxo-2H-isoindol-5-yl)-5-nitrofuran-2-carboxamide], the IC50 on human UT-B (setting [3]) is 10000 to 20000 nM; at human UT-B (setting [4]) it was 12300 nM; on UT-B [1] it was 2960 nM; against UT-B [2] it was 5160 nM.
For `CN(C)CC(=O)Nc1ccc(NC(=O)c2ccc([N+](=O)[O-])o2)cc1` [Example 71, N-(4-(2-dimethylamino)acetamidophenyl)-5-nitrofuran-2-carboxamide], the IC50 on human UT-B (setting [3]) is below 10000 nM; on human UT-B (setting [4]), 1250 nM; at UT-B [1], 570 nM; on UT-B [2], 5410 nM.
The like results for `O=C(CN1CCOCC1)Nc1ccc(NC(=O)c2ccc([N+](=O)[O-])o2)cc1` [Example 72, N-(4-(2-morpholinyl)acetamidophenyl)-5-nitrofuran-2-carboxamide] were, in that order, below 10000 nM, 3050 nM, 2870 nM and 7380 nM.
Taken in the same sequence, the figures for `CN(C)CCC(=O)Nc1ccc(NC(=O)c2ccc([N+](=O)[O-])o2)cc1` [Example 73, N-(4-(3-dimethylamino)propionylaminophenyl)-5-nitrofuran-2-carboxamide] were below 10000 nM, 6610 nM, 1300 nM and 27200 nM.
Taken in the same sequence, the figures for `CN(C)CCNCC(=O)Nc1ccc(NC(=O)c2ccc([N+](=O)[O-])o2)cc1` [Example 74, N-(4-((2-dimethylamino)ethylamino)acetamidophenyl)-5-nitrofuran-2-carboxamide] were below 10000 nM, 3010 nM, 1240 nM and 9590 nM.
For the molecule `CCOC(=O)c1cc(NC(=O)c2ccc([N+](=O)[O-])o2)[nH]n1` [Example 77, ethyl 5-(5-nitrofuran-2-carboxamide)-1H-pyrazole-3-carboxylate], the IC50 on human UT-B (setting [3]) was below 10000 nM; at human UT-B (setting [4]) it was 1630 nM; at UT-B [1], 7810 nM; against UT-B [2], 11500 nM.
Taken in the same sequence, the figures for `CNC(=O)c1cccc(NC(=O)c2ccc(C(C)=O)o2)c1` [Example 78, 3-(5-acetyl-2-furoyl)carbamamide] were below 10000 nM, 130 nM, 240 nM and 520 nM.
Taken in the same sequence, the figures for `C#Cc1cccc(NC(=O)c2ccc([N+](=O)[O-])o2)c1` [Example 79, N-3-(ethynylphenyl)-5-nitrofuran-2-carboxamide] were below 10000 nM, 820 nM, 1100 nM and 4940 nM.
Taken in the same sequence, the figures for “N-(4-fluoro-3-methylcarbomoylphenyl)-5-nitrofuran-2-carboxamide [Example 65]” were 20000 to 80000 nM, 23900 nM, 18300 nM and 4380 nM.
Consider “ethyl 2-acetamido-5-(5-nitrofuran-2-carboxamide) benzoate [Example 75]”, for which the IC50 on human UT-B (setting [3]) was below 10000 nM; on human UT-B (setting [4]), 370 nM; on UT-B [1], 4810 nM; on UT-B [2], 6390 nM.
